Experimental data taken from ChEMBL document CHEMBL1127439, “Structure-activity relationship studies of central nervous system agents. 13. 4-[3-(Benzotriazol-1-yl)propyl]-1-(2-methoxyphenyl)piperazine, a new putative 5-HT1A receptor antagonist, and its analogs” (J Med Chem, 1994).

What was measured:
[1] = species on record: Rattus norvegicus; assay: Selectivity is the ratio between Ki values of 5-HT2 and 5-HT1A
[2] = tested on: Rattus norvegicus; assay: Tested for the induction of lower lip retraction (LLR) by the investigated compounds in rat at dosage of 2 mg/kg; type: functional
[3] = tested on: Mus musculus; assay: Effect on 8-OH-DPAT-induced hypothermia in mice (5 mg/kg) at intraperitoneal dosage of 16 mg/kg of compound after 45 mins; type: functional
[4] = tested on: Mus musculus; assay: Effect on 8-OH-DPAT-induced hypothermia in mice (5 mg/kg) at intraperitoneal dosage of 16 mg/kg of compound after 60 mins; type: functional
[5] = tested on: Mus musculus; assay: Effect on 8-OH-DPAT-induced hypothermia in mice (5 mg/kg) at intraperitoneal dosage of 4 mg/kg of compound after 30 mins. Values expressed as +/- SEM; type: functional
[6] = tested on: Rattus norvegicus; assay: Tested for the effect on 8-OH-DPAT-induced behavior in reserpine pretreated rat against forepaw treading at dosage of 4 mg/kg; type: functional
[7] = tested on: Rattus norvegicus; assay: Tested for the effect on 8-OH-DPAT-induced behavior in reserpine pretreated rat against flat body posture at dosage of 4 mg/kg; type: functional
[8] = tested on: Mus musculus; assay: Effect on 8-OH-DPAT-induced hypothermia in mice (5 mg/kg) at intraperitoneal dosage of 8 mg/kg of compound after 30 mins. Values expressed as +/- SEM; type: functional
[9] = tested on: Mus musculus; assay: Effect on 8-OH-DPAT-induced hypothermia in mice (5 mg/kg) at intraperitoneal dosage of 8 mg/kg of compound after 60 mins; type: functional
[10] = tested on: Mus musculus; assay: Effect on 8-OH-DPAT-induced hypothermia in mice (5 mg/kg) at intraperitoneal dosage of 16 mg/kg of compound after 30 mins; type: functional
[11] = tested on: Rattus norvegicus; assay: Tested for the effect on 8-OH-DPAT-induced behavior in reserpine pretreated rat against forepaw treading at dosage of 16 mg/kg; type: functional
[12] = target: Serotonin 2 (5-HT2) receptor (Rattus norvegicus, UniProt P30994+P08909+P14842); assay: Tested in vitro for receptor binding affinity against 5-hydroxytryptamine 2 receptor using radioligand [3H]ketanserin; type: protein assay
[13] = tested on: Rattus norvegicus; assay: Tested for the effect on 8-OH-DPAT-induced lower lip retraction (LLR) in rat at dosage of 16 mg/kg; type: functional
[14] = tested on: Rattus norvegicus; assay: Tested for the effect on 8-OH-DPAT-induced behavior in reserpine pretreated rat against flat body posture at dosage of 8 mg/kg; type: functional
[15] = tested on: Rattus norvegicus; assay: Tested for the effect on 8-OH-DPAT-induced behavior in reserpine pretreated rat against forepaw treading at dosage of 8 mg/kg; type: functional
[16] = tested on: Rattus norvegicus; assay: Tested for the induction of lower lip retraction (LLR) by the investigated compounds in rat at dosage of 4 mg/kg; type: functional
[17] = tested on: Rattus norvegicus; assay: Tested for the effect on 8-OH-DPAT-induced behavior in reserpine pretreated rat against flat body posture at dosage of 16 mg/kg; type: functional
[18] = tested on: Mus musculus; assay: Effect on 8-OH-DPAT-induced hypothermia in mice (5 mg/kg) at intraperitoneal dosage of 16 mg/kg of compound after 15 mins; type: functional
[19] = tested on: Mus musculus; assay: Effect on 8-OH-DPAT-induced hypothermia in mice (5 mg/kg) at intraperitoneal dosage of 4 mg/kg of compound after 45 mins. Values expressed as +/- SEM; type: functional
[20] = tested on: Rattus norvegicus; assay: Tested for the effect on 8-OH-DPAT-induced lower lip retraction (LLR) in rat at dosage of 8 mg/kg; type: functional
[21] = tested on: Rattus norvegicus; assay: Tested for the effect on 8-OH-DPAT-induced lower lip retraction (LLR) in rat at dosage of 2 mg/kg; type: functional
[22] = tested on: Rattus norvegicus; assay: Tested for the induction of lower lip retraction (LLR) by the investigated compounds in rat at dosage of 16 mg/kg; type: functional
[23] = tested on: Rattus norvegicus; assay: Tested for the induction of lower lip retraction (LLR) by the investigated compounds in rat at dosage of 8 mg/kg; type: functional
[24] = tested on: Mus musculus; assay: Effect on 8-OH-DPAT-induced hypothermia in mice (5 mg/kg) at intraperitoneal dosage of 4 mg/kg of compound after 15 mins. Values expressed as +/- SEM; type: functional
[25] = target: T1, 5-hydroxytryptamine receptor 1A (Rattus norvegicus, UniProt P19327); assay: Tested in vitro for receptor binding affinity against 5-hydroxytryptamine 1A receptor using radioligand [3H]8-OH-DPAT
T1 sequence (P19327 whole entry): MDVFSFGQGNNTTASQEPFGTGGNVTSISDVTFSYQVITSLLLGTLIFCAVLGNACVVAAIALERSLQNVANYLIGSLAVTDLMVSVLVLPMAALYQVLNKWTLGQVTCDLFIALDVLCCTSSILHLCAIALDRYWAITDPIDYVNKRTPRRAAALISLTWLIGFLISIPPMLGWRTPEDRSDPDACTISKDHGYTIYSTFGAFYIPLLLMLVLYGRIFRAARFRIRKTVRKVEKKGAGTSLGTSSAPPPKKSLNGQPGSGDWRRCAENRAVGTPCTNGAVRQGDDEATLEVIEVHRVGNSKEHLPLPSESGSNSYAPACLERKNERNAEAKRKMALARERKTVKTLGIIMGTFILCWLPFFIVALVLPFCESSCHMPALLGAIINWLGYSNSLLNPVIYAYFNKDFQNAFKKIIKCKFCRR

[26] = tested on: Mus musculus; assay: Effect on 8-OH-DPAT-induced hypothermia in mice (5 mg/kg) at intraperitoneal dosage of 8 mg/kg of compound after 15 mins. Values expressed as +/- SEM; type: functional
[27] = tested on: Rattus norvegicus; assay: Tested for the effect on 8-OH-DPAT-induced lower lip retraction (LLR) in rat at dosage of 4 mg/kg; type: functional
[28] = tested on: Mus musculus; assay: Effect on 8-OH-DPAT-induced hypothermia in mice (5 mg/kg) at intraperitoneal dosage of 8 mg/kg of compound after 45 mins. Values expressed as +/- SEM; type: functional
[29] = tested on: Mus musculus; assay: Effect on 8-OH-DPAT-induced hypothermia in mice (5 mg/kg) at intraperitoneal dosage of 4 mg/kg of compound after 60 mins. Values expressed as +/- SEM; type: functional

COc1ccccc1N1CCN(CCCCn2nnc3ccccc32)CC1
Selectivity [1]: 9.4 | LLR score [2]: 0.2 | Delta t [3]: 5.6 °C | Delta t [4]: 5.2 °C | Delta t [5]: 4.2 °C | Behavioral score [6]: 10.3 | Behavioral score [7]: 11 | Delta t [8]: 4.1 °C | Delta t [9]: 2.7 °C | Delta t [10]: 5.6 °C | Behavioral score [11]: 6.1 | Ki [12]: 160 nM | LLR score [13]: 2.4 | Behavioral score [14]: 8.2 | Behavioral score [15]: 3.6 | LLR score [16]: 0.3 | Behavioral score [17]: 12.7 | Delta t [18]: 5.3 °C | Delta t [19]: 3.8 °C | LLR score [20]: 1.9 | LLR score [21]: 2.2 | LLR score [22]: 0.7 | LLR score [23]: 0.1 | Delta t [24]: 3.9 °C | Ki [25]: 17 nM | Delta t [26]: 3.9 °C | LLR score [27]: 2.1 | Delta t [28]: 3.5 °C | Delta t [29]: 3.2 °C
